The values that follow come from article PMC9403976, “Elucidating the path to Plasmodium prolyl-tRNA synthetase inhibitors that overcome halofuginone resistance” (Nature Communications, 2022).

Values joined by “and” are separate entries in the source; they are usually repeats but may differ in a detail not shown here. Equal entries are not always repeated. Where two headings read alike, the source gives them in different places.

Experiment [1] addresses T1, HT-HsProRS (Homo sapiens, UniProt P07814).
T1 sequence (P07814 996-1512): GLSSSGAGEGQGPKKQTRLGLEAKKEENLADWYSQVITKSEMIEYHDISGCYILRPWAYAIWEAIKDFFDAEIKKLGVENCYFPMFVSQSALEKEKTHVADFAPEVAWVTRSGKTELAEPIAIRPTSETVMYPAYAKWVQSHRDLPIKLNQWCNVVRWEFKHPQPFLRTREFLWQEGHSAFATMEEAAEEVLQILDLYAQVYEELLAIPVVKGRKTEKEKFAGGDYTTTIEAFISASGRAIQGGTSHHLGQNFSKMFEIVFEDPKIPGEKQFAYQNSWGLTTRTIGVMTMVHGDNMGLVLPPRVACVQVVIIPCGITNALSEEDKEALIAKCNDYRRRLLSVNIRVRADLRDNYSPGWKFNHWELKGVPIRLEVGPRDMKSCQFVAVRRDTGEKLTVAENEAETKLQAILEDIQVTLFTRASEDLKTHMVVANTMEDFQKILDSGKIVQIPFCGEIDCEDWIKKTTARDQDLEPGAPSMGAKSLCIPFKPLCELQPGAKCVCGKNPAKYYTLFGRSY
As to conditions: replicates 1-4.
Description: (§1) A Multidrop Combi Reagent Dispenser (Thermo Fisher Scientific) was used to dispense 20 μL of 2× protein solution into each well. […] Plates were mixed on an Ika MTS 2/4 Digital Microtiter Shaker at 750 rpm for 2 min, centrifuged at 1000 × g at 25 °C for 1 min, and allowed to equilibrate for 2 h at room temperature before TR-FRET measurements were taken.
(§2) PRISM (V. 8.4.3–9.1.0, GraphPad) was used to perform non-linear regression analysis (log(inhibitor) vs. response–Variable slope (four parameters)), plot dose-response curves, and calculate IC50 values. The Cheng–Prusoff equation was used to convert IC50 to KD values (Eq. (4)):4 KD=IC50/1+[MAT379]/KD,MAT379

Experiment [2] deals with HsProRS (Homo sapiens, UniProt P07814). The note with it: ref Heacock et al.; cited from earlier work.
Experiment [3] has as its target T2, HT-PfcProRS (Plasmodium falciparum, UniProt Q8I5R7). Briefly: biochemical.
Description: as §1, §2
Experiment [4] addresses T1, HT-HsProRS. Briefly: biochemical.
Description: as §1, §2
The target in experiment [5] is T2, HT-PfcProRS.
Description: as §1, §2
[6] abbreviates: HsProRS (KD [nM]) mean, substrates, substrate KD, (-).
The mark [7] stands for this setting: KD of substrate, […] HT-HsProRS, 1000 nM MAT379.

T2 sequence (Q8I5R7 249-746): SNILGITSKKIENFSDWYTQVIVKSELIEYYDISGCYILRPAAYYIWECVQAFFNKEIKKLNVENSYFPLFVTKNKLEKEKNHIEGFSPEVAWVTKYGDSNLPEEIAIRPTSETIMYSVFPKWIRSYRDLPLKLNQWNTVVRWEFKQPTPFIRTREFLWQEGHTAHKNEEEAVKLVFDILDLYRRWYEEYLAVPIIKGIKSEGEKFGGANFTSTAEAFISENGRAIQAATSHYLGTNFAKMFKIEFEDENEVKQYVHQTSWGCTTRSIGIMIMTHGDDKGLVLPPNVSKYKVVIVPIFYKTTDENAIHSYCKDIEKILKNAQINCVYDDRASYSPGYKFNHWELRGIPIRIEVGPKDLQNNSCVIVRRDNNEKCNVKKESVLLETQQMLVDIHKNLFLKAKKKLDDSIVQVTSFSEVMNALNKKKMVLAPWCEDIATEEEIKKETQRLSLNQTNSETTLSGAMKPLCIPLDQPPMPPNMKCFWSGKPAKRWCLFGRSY

For the molecule `Nc1ncnc2c1ncn2[C@@H]1O[C@H](COP(=O)(O)OP(=O)(O)OP(=O)(O)O)[C@@H](O)[C@H]1O` [ATP], the “ATP - […] HT-HsProRS - 1000nM MAT379” value in experiment [1] (Log[Substrate] (M) -1.301) was 1.53E-02 and -2.24E-04 and 3.02E-02 and 2.38E-02; in experiment [1] (Log[Substrate] (M) -1.602), 2.53E-02 and 6.72E-02 and 4.62E-03 and 4.29E-02; in experiment [1] (Log[Substrate] (M) -1.903), 3.94E-02 and 5.54E-02 and 1.78E-02 and 4.02E-02; in experiment [1] (Log[Substrate] (M) -2.204), -1.77E-02 and 2.78E-02 and -2.71E-02; in experiment [1] (Log[Substrate] (M) -2.505), 4.93E-03 and 1.38E-02 and 2.29E-03 and -1.57E-02; in experiment [1] (Log[Substrate] (M) -2.806), 3.39E-02 and 3.33E-02 and 1.97E-02 and 4.46E-02. In addition, the “ATP - […] HT-HsProRS - 1000nM MAT379” value in experiment [1] (Log[Substrate] (M) -3.107) was 5.86E-02 and 6.01E-02 and 5.77E-02 and 4.19E-02; in experiment [1] (Log[Substrate] (M) -3.408) it was 1.19E-01 and 8.31E-02 and 6.99E-02; in experiment [1] (Log[Substrate] (M) -3.709), 1.24E-01 and 1.53E-01 and 1.47E-01 and 1.40E-01; in experiment [1] (Log[Substrate] (M) -4.010), 2.51E-01 and 2.58E-01 and 2.34E-01 and 2.36E-01; in experiment [1] (Log[Substrate] (M) -4.311), 3.56E-01 and 3.10E-01 and 3.57E-01 and 3.37E-01; in experiment [1] (Log[Substrate] (M) -4.612) it was 2.50E-01 and 3.45E-01 and 2.88E-01 and 2.85E-01. Moreover, the “ATP - […] HT-HsProRS - 1000nM MAT379” value in experiment [1] (Log[Substrate] (M) -4.913) was 3.70E-01 and 3.71E-01 and 3.06E-01 and 3.78E-01; in experiment [1] (Log[Substrate] (M) -5.214) it was 3.77E-01 and 4.09E-01 and 3.64E-01 and 3.70E-01; in experiment [1] (Log[Substrate] (M) -5.515), 4.23E-01 and 4.03E-01 and 4.00E-01 and 4.38E-01; in experiment [1] (Log[Substrate] (M) -5.816), 4.03E-01 and 4.66E-01 and 3.88E-01 and 4.49E-01; in experiment [1] (Log[Substrate] (M) -6.118) it was 4.47E-01 and 4.50E-01 and 4.51E-01 and 4.46E-01; in experiment [1] (Log[Substrate] (M) -6.419), 4.22E-01 and 4.52E-01 and 3.59E-01 and 4.01E-01. The Km in experiment [2] is 500 µM. Besides, the Kd in experiment [3] was determined as 892 µM; in experiment [4] (setting [6]) it was 67100 nM; in experiment [4] (setting [7]), 30600 nM.

Regarding `O=C(O)[C@@H]1CCCN1` [proline], the “fold lower affinity for PfcProRS than MAT379” value in experiment [5] was ~ 4,500 fold. Further, the “Proline - […] HT-HsProRS - 1000nM MAT379” value in experiment [1] (Log[Substrate] (M) -1.000) was 5.08E-02 and 1.93E-02 and 4.05E-02 and 1.78E-02; in experiment [1] (Log[Substrate] (M) -1.301) it was 6.44E-02 and 4.43E-02 and 5.23E-02 and 4.24E-02; in experiment [1] (Log[Substrate] (M) -1.602), 7.04E-02 and 4.04E-02 and 8.19E-02 and 3.22E-02; in experiment [1] (Log[Substrate] (M) -1.903) it was 1.06E-01 and 8.64E-02 and 1.07E-01 and 6.69E-02; in experiment [1] (Log[Substrate] (M) -2.204) it was 7.48E-02 and 1.05E-01 and 9.62E-02 and 1.28E-01; in experiment [1] (Log[Substrate] (M) -2.505) it was 7.61E-02 and 5.21E-02 and 2.93E-02 and 5.48E-02. For the same molecule, the “Proline - […] HT-HsProRS - 1000nM MAT379” value in experiment [1] (Log[Substrate] (M) -2.806) is 2.57E-02 and 8.53E-02 and 3.59E-02 and 4.74E-02; in experiment [1] (Log[Substrate] (M) -3.107), 9.60E-02 and 9.41E-02 and 9.82E-02 and 9.09E-02; in experiment [1] (Log[Substrate] (M) -3.408), 8.87E-02 and 1.50E-01 and 1.08E-01 and 8.19E-02; in experiment [1] (Log[Substrate] (M) -3.709), 1.42E-01 and 1.36E-01 and 1.15E-01 and 1.26E-01; in experiment [1] (Log[Substrate] (M) -4.010), 2.43E-01 and 1.82E-01 and 1.50E-01 and 1.67E-01; in experiment [1] (Log[Substrate] (M) -4.311) it was 2.57E-01 and 2.23E-01 and 2.59E-01 and 1.99E-01. Besides, the “Proline - […] HT-HsProRS - 1000nM MAT379” value in experiment [1] (Log[Substrate] (M) -4.612) is 2.84E-01 and 3.36E-01 and 2.90E-01 and 3.09E-01; in experiment [1] (Log[Substrate] (M) -4.913), 3.43E-01 and 3.30E-01 and 3.37E-01 and 3.11E-01; in experiment [1] (Log[Substrate] (M) -5.214), 3.51E-01 and 3.56E-01 and 3.15E-01 and 3.55E-01; in experiment [1] (Log[Substrate] (M) -5.515), 4.26E-01 and 4.08E-01 and 4.22E-01 and 4.16E-01; in experiment [1] (Log[Substrate] (M) -5.816), 4.12E-01 and 3.85E-01 and 3.49E-01 and 3.26E-01; in experiment [1] (Log[Substrate] (M) -6.118), 4.73E-01 and 4.43E-01 and 3.95E-01 and 3.89E-01. Besides, in experiment [2], the Km is 180 µM. For the same molecule, the results for the Kd in experiment [3], in experiment [4] (setting [6]) and in experiment [4] (setting [7]) were 457 µM, 30600 nM and 67100 nM, respectively.

Broadly, the Km is the substrate concentration at which the rate is half of its maximum. A word on the Kd: it is the equilibrium constant for the complex coming apart. Lower therefore signals a tighter complex.
